Source: patent publication US9650395B2, “Antibacterial compounds and methods for use” (PTC Therapeutics, Inc., priority 2011, dated 2017)
≈ marks a conversion by molar mass, not a printed value. Read-outs that look alike come from different tables or passages of the source.

Key:
[1] = tested on: Gram-positive Staphylococcus aureus (S. aureus) 29213; test: Antibacterial activity, microbroth dilution MIC, S. aureus 29213; assay type: cell-based; settings: Staphylococcus aureus; S. aureus 29213, microbroth dilution; read-out: MIC, 29213
[2] = tested on: super sensitive Gram-negative Escherichia coli (E. coli) BAS849; test: Antibacterial activity, microbroth dilution MIC, E. coli BAS849; assay type: cell-based; settings: Escherichia coli, read-out: MIC, BAS849
[3] = tested on: control Gram-negative E. coli 25922 strain; test: Antibacterial activity, microbroth dilution MIC, E. coli 25922; assay type: cell-based, Escherichia coli; settings: Escherichia coli; E. coli 25922, microbroth dilution; read-out: MIC, 25922
[4] = E. coli BAS849, microbroth dilution

SMILES | MIC [1] | MIC [2, 4] | MIC [3] | MIC [2]
CCc1c(-c2ccc(N(C)C)c(OC)c2)[nH]c(=O)c(C(=O)O)c1O [Cpd 65, 6-[4-(dimethylamino)-3-methoxyphenyl]-5-ethyl-4-hydroxy-2-oxo-1,2-dihydropyridine-3-carboxylic acid] | 12.5 to 150 mg/L (≈ 37.6 to 451 µM) | 3.5 to 12.5 mg/L (≈ 10.5 to 37.6 µM) | 12.5 to 150 mg/L (≈ 37.6 to 451 µM) | –
CCc1cc(C(=O)O)c(=O)[nH]c1-c1ccc(N2CCCC2)c(OC)c1 [Cpd 66, 5-ethyl-6-[3-methoxy-4-(pyrrolidin-1-yl)phenyl]-2-oxo-1,2-dihydropyridine-3-carboxylic acid] | 12.5 to 150 mg/L (≈ 36.5 to 438 µM) | 3.5 to 12.5 mg/L (≈ 10.2 to 36.5 µM) | 12.5 to 150 mg/L (≈ 36.5 to 438 µM) | –
CCc1c(-c2ccc(N3CCCC3)c(OC)c2)[nH]c(=O)c(C(=O)O)c1O [Cpd 67, 5-ethyl-4-hydroxy-6-[3-methoxy-4-(pyrrolidin-1-yl)phenyl]-2-oxo-1,2-dihydropyridine-3-carboxylic acid] | 1 to 3.5 mg/L (≈ 2.79 to 9.77 µM) | 3.5 to 12.5 mg/L (≈ 9.77 to 34.9 µM) | 12.5 to 150 mg/L (≈ 34.9 to 419 µM) | –
CCc1c(-c2ccc(N3CCCCC3)c(OC)c2)[nH]c(=O)c(C(=O)O)c1O [Cpd 69, 5-ethyl-4-hydroxy-6-[3-methoxy-4-(piperidin-1-yl)phenyl]-2-oxo-1,2-dihydropyridine-3-carboxylic acid] | 3.5 to 12.5 mg/L (≈ 9.4 to 33.6 µM) | 3.5 to 12.5 mg/L (≈ 9.4 to 33.6 µM) | 12.5 to 150 mg/L (≈ 33.6 to 403 µM) | –
CCc1cc(C(=O)O)c(=O)[nH]c1-c1ccc(N2CCCC2)c(C)c1 [Cpd 70, 5-ethyl-6-[3-methyl-4-(pyrrolidin-1-yl)phenyl]-2-oxo-1,2-dihydropyridine-3-carboxylic acid] | 12.5 to 150 mg/L (≈ 38.3 to 460 µM) | < 1 mg/L | 12.5 to 150 mg/L (≈ 38.3 to 460 µM) | –
CCc1c(-c2ccc(N3CCCC3)c(C)c2)[nH]c(=O)c(C(=O)O)c1O [Cpd 71, 5-ethyl-4-hydroxy-6-[3-methyl-4-(pyrrolidin-1-yl)phenyl]-2-oxo-1,2-dihydropyridine-3-carboxylic acid] | 3.5 to 12.5 mg/L (≈ 10.2 to 36.5 µM) | 1 to 3.5 mg/L (≈ 2.92 to 10.2 µM) | 12.5 to 150 mg/L (≈ 36.5 to 438 µM) | –
CCc1cc(C(=O)O)c(=O)[nH]c1-c1ccc(N2CCCCC2)c(C)c1 [Cpd 72, 5-ethyl-6-[3-methyl-4-(piperidin-1-yl)phenyl]-2-oxo-1,2-dihydropyridine-3-carboxylic acid] | 12.5 to 150 mg/L (≈ 36.7 to 441 µM) | 3.5 to 12.5 mg/L (≈ 10.3 to 36.7 µM) | 12.5 to 150 mg/L (≈ 36.7 to 441 µM) | –
CCc1c(-c2ccc(N3CCCCC3)c(C)c2)[nH]c(=O)c(C(=O)O)c1O [Cpd 73, 5-ethyl-4-hydroxy-6-[3-methyl-4-(piperidin-1-yl)phenyl]-2-oxo-1,2-dihydropyridine-3-carboxylic acid] | 3.5 to 12.5 mg/L (≈ 9.82 to 35.1 µM) | 3.5 to 12.5 mg/L (≈ 9.82 to 35.1 µM) | 12.5 to 150 mg/L (≈ 35.1 to 421 µM) | –
CCc1c(-c2ccc(F)cc2)[nH]c(=O)c(C(=O)O)c1O [Cpd 74, 5-ethyl-6-(4-fluorophenyl)-4-hydroxy-2-oxo-1,2-dihydropyridine-3-carboxylic acid] | 12.5 to 150 mg/L (≈ 45.1 to 541 µM) | 3.5 to 12.5 mg/L (≈ 12.6 to 45.1 µM) | 12.5 to 150 mg/L (≈ 45.1 to 541 µM) | –
CCc1cc(C(=O)O)c(=O)[nH]c1-c1ccc(Cl)cc1 [Cpd 76, 6-(4-chlorophenyl)-5-ethyl-2-oxo-1,2-dihydropyridine-3-carboxylic acid] | 12.5 to 150 mg/L (≈ 45 to 540 µM) | 12.5 to 150 mg/L (≈ 45 to 540 µM) | 12.5 to 150 mg/L (≈ 45 to 540 µM) | –
CCc1c(-c2ccc(Cl)cc2)[nH]c(=O)c(C(=O)O)c1O [Cpd 77, 6-(4-chlorophenyl)-5-ethyl-4-hydroxy-2-oxo-1,2-dihydropyridine-3-carboxylic acid] | 3.5 to 12.5 mg/L (≈ 11.9 to 42.6 µM) | 1 to 3.5 mg/L (≈ 3.4 to 11.9 µM) | 12.5 to 150 mg/L (≈ 42.6 to 511 µM) | –
CCc1cc(C(=O)O)c(=O)[nH]c1-c1ccc(Br)cc1 [Cpd 78, 6-(4-bromophenyl)-5-ethyl-2-oxo-1,2-dihydropyridine-3-carboxylic acid] | 12.5 to 150 mg/L (≈ 38.8 to 466 µM) | 3.5 to 12.5 mg/L (≈ 10.9 to 38.8 µM) | 12.5 to 150 mg/L (≈ 38.8 to 466 µM) | –
CCc1c(-c2ccc(Br)cc2)[nH]c(=O)c(C(=O)O)c1O [Cpd 79, 6-(4-bromophenyl)-5-ethyl-4-hydroxy-2-oxo-1,2-dihydropyridine-3-carboxylic acid] | 3.5 to 12.5 mg/L (≈ 10.4 to 37 µM) | < 1 mg/L | 12.5 to 150 mg/L (≈ 37 to 444 µM) | –
CCc1cc(C(=O)O)c(=O)[nH]c1-c1ccc(I)cc1 [Cpd 80, 5-ethyl-6-(4-iodophenyl)-2-oxo-1,2-dihydropyridine-3-carboxylic acid] | 12.5 to 150 mg/L (≈ 33.9 to 406 µM) | 3.5 to 12.5 mg/L (≈ 9.48 to 33.9 µM) | 12.5 to 150 mg/L (≈ 33.9 to 406 µM) | –
CCc1c(-c2ccc(I)cc2)[nH]c(=O)c(C(=O)O)c1O [Cpd 81, 5-ethyl-4-hydroxy-6-(4-iodophenyl)-2-oxo-1,2-dihydropyridine-3-carboxylic acid] | 3.5 to 12.5 mg/L (≈ 9.09 to 32.5 µM) | 1 to 3.5 mg/L (≈ 2.6 to 9.09 µM) | 12.5 to 150 mg/L (≈ 32.5 to 389 µM) | –
CCc1cc(C(=O)O)c(=O)[nH]c1-c1ccc(N2CC3(CCCCC3)CC2=O)cc1 [Cpd 118, 5-ethyl-2-oxo-6-[4-(3-oxo-2-azaspiro[4.5]dec-2-yl)phenyl]-1,2-dihydropyridine-3-carboxylic acid] | 12.5 to 150 mg/L (≈ 31.7 to 380 µM) | 3.5 to 12.5 mg/L (≈ 8.87 to 31.7 µM) | 12.5 to 150 mg/L (≈ 31.7 to 380 µM) | –
CCc1cc(C(=O)O)c(=O)[nH]c1-c1ccc(N2C(=O)C3C=CC2C3)cc1 (stereo not drawn) [Cpd 119, 5-ethyl-2-oxo-6-[4-(3-oxo-2-azabicyclo[2.2.1]hept-5-en-2-yl)phenyl]-1,2-dihydropyridine-3-carboxylic acid] | 12.5 to 150 mg/L (≈ 35.7 to 428 µM) | 1 to 3.5 mg/L (≈ 2.85 to 9.99 µM) | 12.5 to 150 mg/L (≈ 35.7 to 428 µM) | –
CCc1cc(C(=O)O)c(=O)[nH]c1-c1ccc(N2CC(OC3CCCCO3)C2)cc1 (stereo not drawn) [Cpd 120, 5-ethyl-2-oxo-6-{4-[3-(tetrahydro-2H-pyran-2-yloxy)azetidin-1-yl]phenyl}-1,2-dihydropyridine-3-carboxylic acid] | 12.5 to 150 mg/L (≈ 31.4 to 376 µM) | < 1 mg/L | 12.5 to 150 mg/L (≈ 31.4 to 376 µM) | –
CCc1cc(C(=O)O)c(=O)[nH]c1-c1ccc(N2CCC[C@@H](O)C2)cc1 [Cpd 122, 5-ethyl-6-{4-[(3R)-3-hydroxypiperidin-1-yl]phenyl}-2-oxo-1,2-dihydropyridine-3-carboxylic acid] | 12.5 to 150 mg/L (≈ 36.5 to 438 µM) | < 1 mg/L | 3.5 to 12.5 mg/L (≈ 10.2 to 36.5 µM) | –
CCc1c(-c2ccc(N3CCC[C@@H](O)C3)cc2)[nH]c(=O)c(C(=O)O)c1O [Cpd 125, 5-ethyl-4-hydroxy-6-{4-[(3R)-3-hydroxypiperidin-1-yl]phenyl}-2-oxo-1,2-dihydropyridine-3-carboxylic acid] | 12.5 to 150 mg/L (≈ 34.9 to 419 µM) | < 1 mg/L | 3.5 to 12.5 mg/L (≈ 9.77 to 34.9 µM) | –
CCc1cc(C(=O)OC)c(=O)[nH]c1-c1ccc(N2CCC(OCc3ccccc3)C2)cc1 (stereo not drawn) [Cpd 127, methyl 6-{4-[3-(benzyloxy)pyrrolidin-1-yl]phenyl}-5-ethyl-2-oxo-1,2-dihydropyridine-3-carboxylate] | 12.5 to 150 mg/L (≈ 28.9 to 347 µM) | 12.5 to 150 mg/L (≈ 28.9 to 347 µM) | 12.5 to 150 mg/L (≈ 28.9 to 347 µM) | –
CCc1cc(C(=O)O)c(=O)[nH]c1-c1ccc(N2C[C@@H](N)[C@H](O)C2)cc1.Cl [Cpd 133, 6-{4-[(3R,4R)-3-amino-4-hydroxypyrrolidin-1-yl]phenyl}-5-ethyl-2-oxo-1,2-dihydropyridine-3-carboxylic acid hydrochloride] | 12.5 to 150 mg/L | 1 to 3.5 mg/L | 12.5 to 150 mg/L | –
CCc1cc(C(=O)O)c(=O)[nH]c1-c1ccc(N2CC3CC2CN3C(=O)OC(C)(C)C)cc1 (stereo not drawn) [Cpd 137, 6-{4-[5-(tert-butoxycarbonyl)-2,5-diazabicyclo[2.2.1]hept-2-yl]phenyl}-5-ethyl-2-oxo-1,2-dihydropyridine-3-carboxylic acid] | 12.5 to 150 mg/L (≈ 28.4 to 341 µM) | – | 12.5 to 150 mg/L (≈ 28.4 to 341 µM) | < 1 mg/L
CCc1cc(C(=O)O)c(=O)[nH]c1-c1ccc(N2CCC[C@H]2CN2CCCC2)cc1.O=C(O)C(F)(F)F [Cpd 143, 5-ethyl-2-oxo-6-{4-[(2S)-2-(pyrrolidin-1-ylmethyl)pyrrolidin-1-yl]phenyl}-1,2-dihydropyridine-3-carboxylic acid trifluoroacetate] | 12.5 to 150 mg/L | – | 12.5 to 150 mg/L | 3.5 to 12.5 mg/L
